The text below walks through data of patent US12150995B2, “IRAK degraders and uses thereof” (Kymera Therapeutics, Inc., priority 2020, dated 2024).

This assay has as its target T1, IRAK4 (Homo sapiens, UniProt Q9NWZ3).
T1 construct: endogenous in cells; host or cells: OCI-LY10
T1 sequence (Q9NWZ3 1-460): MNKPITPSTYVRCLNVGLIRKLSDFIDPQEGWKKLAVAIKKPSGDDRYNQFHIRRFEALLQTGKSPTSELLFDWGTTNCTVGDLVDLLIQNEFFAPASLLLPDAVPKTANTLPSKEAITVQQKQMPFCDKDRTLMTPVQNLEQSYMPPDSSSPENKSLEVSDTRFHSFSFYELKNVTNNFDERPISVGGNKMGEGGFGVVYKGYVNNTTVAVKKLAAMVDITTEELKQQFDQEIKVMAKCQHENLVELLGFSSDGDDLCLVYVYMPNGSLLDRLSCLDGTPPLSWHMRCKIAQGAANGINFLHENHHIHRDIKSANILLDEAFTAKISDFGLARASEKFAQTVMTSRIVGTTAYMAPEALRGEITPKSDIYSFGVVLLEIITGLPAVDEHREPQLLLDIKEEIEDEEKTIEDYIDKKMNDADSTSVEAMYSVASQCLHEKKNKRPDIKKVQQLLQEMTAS
The experiment in a line: IRAK4 MSD Degradation in OCI-LY10. It counts as cell-based. Particulars: OCI-LY10 cells, Meso Scale Discovery, incubated 4 to 24 hours. The method, boiled down: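 OCI-LY10 cells (300,000/well) exposed to an 8-point 1:3 series from a top concentration of 1 to 10 μM for 4 to 24 h at 37 °C. IRAK4 remaining in RIPA lysates quantified by MSD sandwich immunoassay; DC50 from a three-parameter logistic fit.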

Molecules are shown by their SMILES.

For orientation: DC50 means the concentration giving 50% degradation. Higher therefore signals degradation only at high concentration.

`O=C1CCN(c2cncc3c(C4CCN(C[C@H]5CC[C@H](n6cc7cc(NC(=O)c8cccc(C(F)(F)F)n8)ncc7n6)CC5)CC4)cccc23)C(=O)N1` [I-103] registered a 50% degradation concentration (DC50) of 10 to 50 nM.
The figure for `COc1ccc2c(c1N1CCN(C[C@H]3CC[C@H](NC(=O)c4cnc(-c5ccc6cc(C#N)cnn56)cc4NC(C)C)CC3)CC1)n(C)c(=O)n2C1CCC(=O)NC1=O` (some centres unmarked) [I-395] is < 10 nM; for `COc1cc2nn([C@H]3CC[C@H](CN4CCC(c5cccc6c5n(C)c(=O)n6C5CCC(=O)NC5=O)CC4)CC3)cc2cc1NC(=O)c1cncc(Cl)c1` (some centres unmarked) [I-196] it is < 10 nM; for `COc1cc2nn([C@H]3CC[C@H](CN4CCN(c5cccc6c5n(C)c(=O)n6C5CCC(=O)NC5=O)CC4(C)C)CC3)cc2cc1NC(=O)c1cccc(C(F)(F)F)n1` (some centres unmarked) [I-306] it is 10 to 50 nM.
On to `COc1cc2nn([C@H]3CC[C@H](CN4CC=C(c5cccc6c(N7CCC(=O)NC7=O)cncc56)CC4)CC3)cc2cc1NC(=O)c1cccc(C(F)(F)F)n1` [I-357], for which the DC50 was < 10 nM.
Next, `COc1cc2nn([C@H]3CC[C@H](CN4C[C@H]5C[C@@H]4CN5c4cccc5c4n(C)c(=O)n5C4CCC(=O)NC4=O)CC3)cc2cc1NC(=O)c1cncc(C#N)c1` (some centres unmarked) [I-166]: > 200 nM; `COc1cc2nc([C@H]3CC[C@H](CN4CCC5(CC4)CC(CCNc4cccc6c4C(=O)N(C4CCC(=O)NC4=O)C6=O)C5)CC3)oc2cc1NC(=O)c1cnn2cccnc12` (some centres unmarked) [I-7]: > 200 nM.
The figure for `CC(C)(O)c1cc2nc([C@H]3CC[C@H](CN4CCN(CCNc5cccc6c5C(=O)N(C5CCC(=O)NC5=O)C6=O)CC4)CC3)sc2cc1NC(=O)c1cncc(C#N)c1` (some centres unmarked) [I-453] is 100 to 200 nM; for `O=C1CCN(c2cncc3c(N4CCN(C[C@H]5CC[C@H](n6cc7cc(NC(=O)c8cccc(C(F)(F)F)n8)c(Cl)cc7n6)CC5)CC4)cccc23)C(=O)N1` [I-358] it is 10 to 50 nM.
Take `Cn1c(=O)n(C2CCC(=O)NC2=O)c2cccc(N3CCN(C[C@H]4CC[C@H](n5cc6cc(NC(=O)c7cccc(C(F)(F)F)n7)ccc6n5)CC4)CC3)c21` (some centres unmarked) [I-209]: the DC50 is < 10 nM.
Consider `CC(C)Nc1cc(-n2ccc3cc(C(F)(F)F)cnc32)ncc1C(=O)N[C@H]1CC[C@H](CN2CCC(c3cccc4c3n(C)c(=O)n4C3CCC(=O)NC3=O)CC2)CC1` (some centres unmarked) [I-368], for which the half-maximal degradation concentration (DC50) is > 200 nM.
For the molecule `COc1cncc(C(=O)Nc2cc3cn([C@H]4CC[C@H](CN5CCN(c6cccc7c6n(C)c(=O)n7C6CCC(=O)NC6=O)CC5)CC4)nc3cc2OC)c1` (some centres unmarked) [I-287], the DC50 is < 10 nM.
Take `COc1cc2nn([C@H]3CC[C@H](CN4CCC(c5cccc6c5n(C)c(=O)n6C5CCC(=O)NC5=O)CC4)CC3)cc2cc1NC(=O)c1cncc(C#N)c1` (some centres unmarked) [I-77]: the DC50 was < 10 nM.
The figure for `CN(C(=O)[C@H]1CC[C@H](n2cc3cc(NC(=O)c4cccc(C(F)(F)F)n4)ncc3n2)CC1)C1CCN(c2cccc3c2n(C)c(=O)n3C2CCC(=O)NC2=O)CC1` (some centres unmarked) [I-187] is < 10 nM; for `COc1cc2nn([C@H]3CC[C@H](CN4CCC(c5c(F)ccc6c5n(C)c(=O)n6C5CCC(=O)NC5=O)CC4)CC3)cc2cc1NC(=O)c1cccc(C(F)(F)F)n1` (some centres unmarked) [I-101] it is < 10 nM.
The figure for `COc1cc2nn([C@H]3CC[C@H](CN4CCC(c5cccc6c5n(C)c(=O)n6C5CCC(=O)NC5=O)CC4)CC3)cc2cc1NC(=O)c1cnc(C#N)c(Cl)c1` (some centres unmarked) [I-136] is > 200 nM.
Next, `CN(C(=O)[C@H]1CC[C@H](n2cc3cc(NC(=O)c4cccc(C(F)(F)F)n4)ccc3n2)CC1)C1CCN(c2cccc3c2n(C)c(=O)n3C2CCC(=O)NC2=O)CC1` (some centres unmarked) [I-186]: < 10 nM; `Cc1ccc2c(c1C1CCN(C[C@H]3CC[C@H](n4cc5cc(NC(=O)c6cccc(C(F)(F)F)n6)c(F)cc5n4)CC3)CC1)n(C)c(=O)n2C1CCC(=O)NC1=O` (some centres unmarked) [I-67]: 10 to 50 nM; `COc1cc2nn([C@H]3CC[C@H](CN4C5CCC4CN(c4cccc6c(N7CCC(=O)NC7=O)cncc46)C5)CC3)cc2cc1NC(=O)c1cccc(C(F)(F)F)n1` [I-219]: < 10 nM.
For `COc1cc2nn([C@H]3CC[C@H](CN4CCC(c5c(OC)ccc6c5n(C)c(=O)n6C5CCC(=O)NC5=O)CC4)CC3)cc2cc1NC(=O)c1cncc(C#N)c1` (some centres unmarked) [I-195], the DC50 fell in the range of 10 to 50 nM.
`CC(C)Nc1cc(-c2ccc3cc(C#N)cnn23)ncc1-c1cn([C@H]2CC[C@H](CN3CCN(c4cccc5c4n(C)c(=O)n5C4CCC(=O)NC4=O)CC3)CC2)nn1` (some centres unmarked) [I-411] had a DC50 of 10 to 50 nM.
The figure for `COc1ccc2c(c1C1CCN(C[C@H]3CC[C@H](n4cc5cc(NC(=O)c6cccc(C(F)(F)F)n6)ncc5n4)CC3)CC1)n(C)c(=O)n2C1CCC(=O)NC1=O` (some centres unmarked) [I-83] is < 10 nM; for `CC(C)(O)c1cc2nn([C@H]3CC[C@H](CN4CCC(c5cccc6c(N7CCC(=O)NC7=O)cncc56)CC4)CC3)cc2cc1NC(=O)c1cccc(C(F)(F)F)n1` [I-78, N-[2-[4-[[4-[4-(2,4-dioxohexahydropyrimidin-1-yl)-8-isoquinolyl]-1-piperidyl]methyl]cyclohexyl]-6-(1-hydroxy-1-methyl-ethyl)indazol-5-yl]-6-(trifluoromethyl)pyridine-2-carboxamide] it is < 10 nM; for `Cn1c(=O)n(C2CCC(=O)NC2=O)c2cccc(N3CC4CCC(C3)N4C[C@H]3CC[C@H](n4cc5cc(NC(=O)c6cccc(C(F)(F)F)n6)ccc5n4)CC3)c21` (some centres unmarked) [I-164] it is < 10 nM.
The figure for `COc1cc2nc([C@H]3CC[C@H](CN4CC5(CC(CCNc6cccc7c6C(=O)N(C6CCC(=O)NC6=O)C7=O)C5)C4)CC3)n(C)c2cc1NC(=O)c1cccc(C(F)(F)F)n1` (some centres unmarked) [I-3] is 50 to 100 nM; for `Cn1c(=O)n(C2CCC(=O)NC2=O)c2cccc(C3CCN(C[C@H]4CC[C@H](n5cc6cc(NC(=O)c7cccc(C(F)(F)F)n7)c(N7CCOCC7)cc6n5)CC4)CC3)c21` (some centres unmarked) [I-38] it is < 10 nM.
The figure for `Cc1cc2nn([C@H]3CC[C@H](CN4CCN(c5cccc6c5n(C)c(=O)n6[C@@H]5CCC(=O)NC5=O)CC4)CC3)cc2cc1NC(=O)c1cccc(C(F)(F)F)n1` [I-400, N-[2-[4-[[4-[1-[(3R)-2,6-dioxo-3-piperidyl]-3-methyl-2-oxo-benzimidazol-4-yl]piperazin-1-yl]methyl]cyclohexyl]-6-methyl-indazol-5-yl]-6-(trifluoromethyl)pyridine-2-carboxamide] is < 10 nM; for `CC(C)(O)c1cc2nc([C@H]3CC[C@H](C(=O)N4CCN(CCCNc5cccc6c5C(=O)N(C5CCC(=O)NC5=O)C6=O)CC4)CC3)sc2cc1NC(=O)c1cncc(C#N)c1` (some centres unmarked) [I-451] it is 50 to 100 nM; for `O=C1CCN(c2cncc3cc(C4CCN(C[C@H]5CC[C@H](c6nc7ccc(NC(=O)c8cccc(C(F)(F)F)n8)cc7s6)CC5)CC4)ccc23)C(=O)N1` [I-181] it is > 200 nM.
Take `Cn1c(=O)n(C2CCC(=O)NC2=O)c2cccc(C3CCN(C[C@H]4CC[C@H](n5cc6cc(NC(=O)n7ccc8cc(C#N)cnc87)ccc6n5)CC4)CC3)c21` (some centres unmarked) [I-129]: the half-maximal degradation concentration (DC50) was < 10 nM.
The figure for `CN(C)c1cc2nn([C@H]3CC[C@H](CN4CCC(c5cccc6c5n(C)c(=O)n6C5CCC(=O)NC5=O)CC4)CC3)cc2cc1NC(=O)c1cccc(C(F)(F)F)n1` (some centres unmarked) [I-107] is < 10 nM.
Next, `CC(C)(O)c1cc2nc([C@H]3CC[C@H](CN4CCO[C@@H](CCCNc5cccc6c5C(=O)N(C5CCC(=O)NC5=O)C6=O)C4)CC3)sc2cc1NC(=O)c1cncc(C#N)c1` (some centres unmarked) [I-454]: > 200 nM; `CN(CCCCNc1cccc2c1C(=O)N(C1CCC(=O)NC1=O)C2=O)C[C@H]1CC[C@H](c2nc3cc(C(C)(C)O)c(NC(=O)c4cccc(C#N)n4)cc3s2)CC1` (some centres unmarked) [I-445]: < 10 nM.
Next, `COc1cc2nn([C@H]3CC[C@H](CN4CC[C@@H](c5cccc6c(N7CCC(=O)NC7=O)cncc56)C4)CC3)cc2cc1NC(=O)c1cccc(C(F)(F)F)n1` [I-291]: 10 to 50 nM; `CC(C)Nc1c(C(=O)N[C@H]2CC[C@H](CN3CCN(c4cccc5c(N6CCC(=O)NC6=O)cncc45)CC3)CC2)cnc2c1Oc1ccc(C#N)cc1O2` [I-408]: > 200 nM.
With `Cn1c(=O)n(C2CCC(=O)NC2=O)c2cccc(C3CCN(C[C@H]4CC[C@H](n5cc6cc(NC(=O)c7cccc(C(F)(F)F)n7)c(Cl)cc6n5)CC4)CC3)c21` (some centres unmarked) [I-24], the DC50 lay within 10 to 50 nM.
In the case of `Cc1ccc2c(c1C1CCN(C[C@H]3CC[C@H](n4cc5cc(NC(=O)c6cccc(C(F)(F)F)n6)c(Cl)cc5n4)CC3)CC1)n(C)c(=O)n2C1CCC(=O)NC1=O` (some centres unmarked) [I-73], the DC50 fell in the range of 10 to 50 nM.
Next, `Cn1c(=O)n(C2CCC(=O)NC2=O)c2ccc(C3CCN(C[C@H]4CC[C@H](n5cc6cc(NC(=O)c7cccc(C(F)(F)F)n7)ncc6n5)CC4)CC3)c(Cl)c21` (some centres unmarked) [I-178]: > 200 nM; `Cc1cc2nn([C@H]3CC[C@H](CN4C[C@@H]5C[C@H]4CN5c4cccc5c4n(C)c(=O)n5C4CCC(=O)NC4=O)CC3)cc2cc1NC(=O)c1cccc(C(F)(F)F)n1` (some centres unmarked) [I-303]: < 10 nM; `C[C@@H]1CN(c2cccc3c2n(C)c(=O)n3C2CCC(=O)NC2=O)CCN1C[C@H]1CC[C@H](n2cc3cc(NC(=O)c4cccc(C(F)(F)F)n4)ccc3n2)CC1` (some centres unmarked) [I-163]: < 10 nM.
The figure for `COc1cc2nn([C@H]3CC[C@H](CN4CCN(c5cccc6c5n(C)c(=O)n6C5CCC(=O)NC5=O)CC4)CC3)cc2cc1NC(=O)c1ccnc(C(F)(F)F)n1` (some centres unmarked) [I-298] is < 10 nM.
